# Literature values as cited in patent publication US7022677B1, “Amide derivatives as growth hormone secretagogues” (Kaken Pharmaceutical Co., Ltd., priority 1999, dated 2006).
# Columns and labels:
# growth hormone release = settings: control compound for pharmacophore development
# [1] = human, in vivo
Compound,growth hormone releasing activity (active/inactive) (growth hormone release),oral bioavailability [1]
"CC(C)(N)CC(=O)N[C@H]1CCc2ccccc2N(Cc2ccc(-c3ccccc3-c3nn[nH]n3)cc2)C1=O [L-692,428]",inactive,–
GHRP-6,–,0.3%
